{"source": "patent US20030129168A1", "about": "“Expression of proteins for treating asthma via ligand mediated activation of their encoding genes” (ARIAD Gene Therapeutics, Inc., priority 1996, published 2003)", "key": {"[1]": {"tested_on": "chimeric FKBP12/CD3 (1FK3) receptor", "assay": "FK1012A activation of chimeric FKBP12/CD3 (1FK3) receptor, NFAT-SX SEAP reporter", "assay_type": "cell-based", "settings": "addition of 2 ng/ml FK506", "description": "5 μg of the eukaryotic expression vector, pBJ5, (based on pCDL-SR with a polylinker inserted between the 16S splice site and the poly A site), containing the chimeric receptor (1FK3), was co-transfected with 4 μg of the NFAT-inducible secreted alkaline phosphatase reporter plasmid, NFAT-SX. As a control, 5 μg of pBJ5 was used, instead of 1FK3/pBJ5, in a parallel transfection. After 24 hours, aliquots of each transfection containing approximately 10^5 cells were incubated with log dilutions of the drug FK1012A, as indicated. As a positive control and to control for transfection efficiency, ionomycin (1 μM) and PMA (25 ng/ml) were added to aliquots from each transfection. After an additional 14 hour incubation, the supernatants were assayed for alkaline phosphatase activity and these activities were expressed relative to that of the positive control samples. […] Each data point obtained was the average of two samples and the experiment was performed several times with similar results."}, "[2]": {"tested_on": "myristoylated chimeric CD3/FKBP12 (MZF3E) receptor", "assay": "FK1012 activation of myristoylated chimeric CD3/FKBP12 (MZF3E) receptor, NFAT SEAP reporter in Jurkat T cells", "assay_type": "cell-based, human", "settings": "addition of 1 ng/ml FK506", "source_text": "In an illustrative case, this was accomplished by creating an intracellular receptor comprised of a small fragment of Src sufficient for posttranslational myristoylation (M), the cytoplasmic tail of zeta (Z; a component of the […] was also used), three consecutive FKBP12s (F3) and a flu epitope tag (E). […] The promoter of the SEAP reporter gene was constructed to be transcriptionally activated by nuclear factor of activated T cells (NFAT), which is assembled in the nucleus following TCR-signaling.\nSpecifically, 5 μg of the eukaryotic expression vector, pBJ5, containing a myristoylated chimeric receptor was co-transfected with 4 μg NFAT-SX. MZE, MZF1E, MZF2E and MZF3E contain 0, 1, 2, or 3 copies of FKBP12, respectively, downstream of a myristoylated CD3 cytoplasmic domain (see FIG. 2 of PCT/US94/01617). As a control, 5 μg of pBJ5 was used in a parallel transfection. After 24 hours, aliquots of each transfection containing approximately 10^5 cells were incubated with log dilutions of the drug, FK1012B, as indicated. As a positive control and to control for transfection efficiency, ionomycin (1 μm) and PMA (25 ng/ml) were added to aliquots from each transfection. After an additional 12 hour incubation, the supernatants were assayed for alkaline phosphatase activity and these activities were expressed relative to that of the positive control samples. […] Compare FIGS. 7 and 8 of PCT/US94/01617."}, "NFAT": {"tested_on": "NFAT", "assay": "SEAP reporter activation by cross-linking chimeric receptor TAC/TAC/Z (TTZ) in TAg Jurkat cells", "assay_type": "cell-based, human", "settings": "addition of 1 ng/ml FK506; TTZ-transfected TAg Jurkat cells on bound anti-TAC mAb", "source_text": "The plasmid pSXNeo/IL2 (IL2-SX) (FIG. 1 of PCT/US94/01617), which contains the placental secreted alkaline phosphatase gene under the control of human IL-2 promoter (−325 to +47; MCB(86) 6, 3042), and related plasmid variants (i.e. NFAT-SX, NFB-SX, OAP/Octl-SX, and AP-1-SX) in which the reporter gene is under the transcriptional control of the minimal IL-2 promoter (−325 to −294 and −72 to +47) combined with synthetic oligomers containing various promoter elements (i.e. NFAT, NKB, OAP/Oct-1, and AP1, respectively), were made by three piece ligations of 1) pPL/SEAP (Berger, et al., Gene (1988) 66,1) cut with Sspl and HindIII; 2) pSV2/Neo (Southern and Berg, J. Mol. Appl. Genet. (1982) 1, 332) cut with NdeI, blunted with Kilenow, then cut with PvuI; and 3) various promoter-containing plasmids (i.e. NFAT-CD8, B-CD8, cxl2lacZ-Oct-1, AP1-LUCIF3H, or cx151L2) (described below) cut with PvuI and HindIII. NFAT-CD8 contains 3 copies of the NFAT-binding site (−286 to −257; Genes and Dev. (1990) 4, 1823) and cx121acZ-Oct contains 4 copies of the OAP/Oct-1/(ARRE-1) binding site (MCB, (1988) 8, 1715) from the human IL-2 enhancer; B-CD8 contains 3 copies of the NFB binding site from the murine light chain (EMBO (1990) 9,4425) and AP1-LUCIF3H contains 5 copies of the AP-1 site (5′-[…]-3′) from the metallothionen promoter. […]"}}, "data": [{"compound": "C=CC[C@@H]1/C=C(\\C)C[C@H](C)C[C@H](OC)[C@H]2O[C@@](O)(C(=O)C(=O)N3CCCC[C@H]3C(=O)O[C@H](/C(C)=C/[C@@H]3CC[C@@H](O)[C@H](OC)C3)[C@H](C)[C@@H](O)CC1=O)[C@H](C)C[C@@H]2OC", "note": "[FK506]", "values": [{"measurement": "alkaline phosphatase activity (FK1012A stimulations)", "setting": "[1]", "result": "dropped all stimulations to background levels"}, {"measurement": "alkaline phosphatase activity (FK1012B stimulations)", "setting": "[2]", "result": "dropped all stimulations to near background levels"}, {"measurement": "alkaline phosphatase activity due to NFAT", "setting": "NFAT", "result": "dropped all activity due to NFAT to background levels"}]}]}
